# Measured values as given in ChEMBL document CHEMBL1136647, “Visual detection of AMP and real-time monitoring of cyclic nucleotide phosphodiesterase (PDE) activity in neutral aqueous solution. Chemosensor-coupled assay of PDE and PDE inhibitors” (Bioorg Med Chem Lett, 2003).
# Experiment: Inhibitory concentration against phosphodiesterase from bovine heart
smiles,measurement,value
CC(C)Cn1c(=O)n(C)c(=O)c2nc[nH]c21 [ISOBUTYLMETHYLXANTHINE],IC50,36 µM
